Source: ChEMBL document CHEMBL1201862, “PubChem BioAssay data set” (2004)
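How tested: cells in 96-well plates exposed to compound for 48 hours at five concentrations. Abbreviation: GI50, concentration required for 50% inhibition of growth.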 The source made the active and inactive calls. No stated cut-off is given here; in the data, active = GI50 up to about 1.1 µM and inactive = higher.

How the values were obtained:
Test in all cases: DTP human tumour cell line panel, 48 h
[1] = test system: NCI-H23
[2] = test system: LOX IMVI
[3] = test system: BT-549
[4] = test system: HOP-62
[5] = test system: ACHN
[6] = test system: SW-620
[7] = test system: CAKI-1
[8] = test system: EKVX
[9] = test system: SN12C
[10] = test system: SF-268
[11] = test system: U-251
[12] = test system: PC-3
[13] = test system: COLO 205
[14] = test system: SK-MEL-2
[15] = test system: SK-MEL-5
[16] = test system: OVCAR-4
[17] = test system: HT-29
[18] = test system: MOLT-4
[19] = test system: KM12
[20] = test system: 786-0

Measured: GI50

COc1cc(OC)c2nc(C)c3c(c2c1)OCC3
inactive: [1] > 100 µM | [2] > 100 µM | [3] > 100 µM | [4] 37.7 µM | [5] > 100 µM | [6] > 100 µM | [7] 19.8 µM | [8] 75.2 µM | [9] 89.3 µM | [10] 47.2 µM | [11] 35 µM | [12] > 100 µM | [13] > 100 µM | [14] > 100 µM | [15] > 100 µM | [16] > 100 µM | [17] > 100 µM | [18] > 100 µM | [19] > 100 µM | [20] 61.1 µM

CC1(c2nc3ccccc3[nH]2)CCC(CO)C(C)(C)O1 (stereo not given)
inactive: [1] > 100 µM | [2] > 100 µM | [3] > 100 µM | [4] > 100 µM | [5] > 100 µM | [6] > 100 µM | [7] > 100 µM | [8] > 100 µM | [9] > 100 µM | [10] > 100 µM | [11] > 100 µM | [12] > 100 µM | [13] > 100 µM | [14] > 100 µM | [15] > 100 µM | [16] > 100 µM | [17] > 100 µM | [18] > 100 µM | [19] > 100 µM | [20] > 100 µM

C=CCOCC1C2CCC3(OCCO3)C21 (stereo not given)
inactive: [1] 48.5 µM | [2] > 100 µM | [3] > 100 µM | [4] > 100 µM | [5] > 100 µM | [6] > 100 µM | [7] 30.4 µM | [8] > 100 µM | [9] > 100 µM | [10] > 100 µM | [11] > 100 µM | [12] > 100 µM | [13] > 100 µM | [14] > 100 µM | [15] > 100 µM | [16] > 100 µM | [17] > 100 µM | [18] > 100 µM | [19] > 100 µM | [20] > 100 µM

O=P(O)(O)CN1CCN(CP(=O)(O)O)CCN(CP(=O)(O)O)CCN(CP(=O)(O)O)CC1
inactive: [1] 55.6 µM | [2] > 100 µM | [3] 35.6 µM | [4] > 100 µM | [5] > 100 µM | [6] 42.6 µM | [7] > 100 µM | [8] > 100 µM | [9] > 100 µM | [10] > 100 µM | [11] 45.6 µM | [12] 87.3 µM | [13] 32.4 µM | [14] 32.8 µM | [15] > 10 µM | [16] > 100 µM | [17] 69 µM | [18] 41.3 µM | [19] 41.8 µM | [20] > 100 µM

COc1ccc2cc(/C=N\NC(=O)Nc3cccc4ccccc34)ccc2c1
inactive: [1] 24.3 µM | [2] 33.9 µM | [3] 49.4 µM | [4] 15.3 µM | [5] 23.9 µM | [6] 74 µM | [7] 23.8 µM | [8] 30.6 µM | [9] 36.6 µM | [10] 52.6 µM | [11] 16.4 µM | [12] 33.7 µM | [13] 46.7 µM | [14] 25.7 µM | [15] 37.3 µM | [16] 14.5 µM | [17] 39.2 µM | [18] 34.1 µM | [19] 67 µM | [20] 12.9 µM

COc1ccc2c(c1)CCC(CN1CCN(CCOC(c3ccccc3)c3ccccc3)CC1)C2O (stereo not given)
inactive: [1] 15.1 µM | [2] 17.3 µM | [3] 14 µM | [4] 19 µM | [5] 12.6 µM | [6] 20 µM | [7] 15.7 µM | [8] 11.1 µM | [9] 13.5 µM | [10] 16.6 µM | [11] 14.8 µM | [12] 13.5 µM | [13] 12.6 µM | [14] 17.5 µM | [15] 8.3 µM | [16] 15.9 µM | [17] 5.04 µM | [18] 11.8 µM | [19] 18.3 µM | [20] 16.6 µM

CN1CCc2c(sc3nc(S)nc(S)c23)C1
inactive: [1] > 100 µM | [2] > 100 µM | [3] > 100 µM | [4] > 100 µM | [5] > 100 µM | [6] > 100 µM | [7] > 100 µM | [8] > 100 µM | [9] > 100 µM | [10] > 100 µM | [11] 72.4 µM | [12] > 100 µM | [13] > 100 µM | [14] > 100 µM | [15] > 100 µM | [16] > 100 µM | [17] > 100 µM | [18] > 100 µM | [19] > 100 µM | [20] > 100 µM

COc1ccc2[nH]cc(C=C3C(=O)NC(=S)NC3=O)c2c1
inactive: [1] 31.2 µM | [2] > 100 µM | [3] 53 µM | [4] 45.9 µM | [5] > 100 µM | [6] > 100 µM | [7] > 100 µM | [8] > 100 µM | [9] > 100 µM | [10] 19.8 µM | [11] 24.2 µM | [12] > 100 µM | [13] > 100 µM | [14] 92.3 µM | [15] > 100 µM | [16] > 100 µM | [17] > 100 µM | [18] 62.4 µM | [19] > 100 µM | [20] 31.6 µM
